Experimental data taken from PubChem BioAssay AID2060906 (Molecular Pharmacology Branch, DTP, NCI, 2025).

Tested on: 485176-168-R4-J1-PDC complex spheroid growth
Experiment: Anticancer human tumor 485176-168-R4-J1-PDC patient-derived pancreatic adenocarcinoma cell line growth inhibition [RAS]
Settings: for IC50: curve of first compound; for viability, T/C: stronger effect = lower value
Method in brief: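 Tumour cells grown as complex spheroids with HUVEC endothelial cells and mesenchymal stem cells, treated with RAS pathway inhibitor combinations. Each agent spans half-log steps from near clinical Cmax, or 10 microM where Cmax is unknown.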
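Note: spheroids exposed to compounds for seven days before readout.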
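Throughout, for viability, T/C: luminescence viability expressed relative to DMSO vehicle wells set as 100%.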

## C=CC(=O)Nc1cc(Nc2nccc(-c3cn(C)c4ccccc34)n2)c(OC)cc1N(C)CCN(C)C + CCn1c(-c2cc(N3CCN(C)CC3)cnc2C(C)OC)c2c3cc(ccc31)-c1csc(n1)CC(NC(=O)C1CC1C)C(=O)N1CCCC(N1)C(=O)OCC(C)(C)C2
Second compound 0.000949 µM
  IC50: > 1000 nM
Second compound 0.003 µM
  IC50: > 1000 nM
Second compound 0.00949 µM
  IC50: > 1000 nM
Second compound 0.03 µM
  IC50: > 1000 nM
Second compound 0.0949 µM
  IC50: > 1000 nM
Second compound 0.3 µM
  IC50: > 1000 nM
Second compound 0.000949 µM, first compound 0.00316 µM
  viability, T/C: 88.1%
Second compound 0.000949 µM, first compound 0.01 µM
  viability, T/C: 91.4%
Second compound 0.000949 µM, first compound 0.0316 µM
  viability, T/C: 95.6%
Second compound 0.000949 µM, first compound 0.1 µM
  viability, T/C: 89.9%
Second compound 0.000949 µM, first compound 0.316 µM
  viability, T/C: 79.7%
Second compound 0.000949 µM, first compound 1 µM
  viability, T/C: 69.4%
Second compound 0.003 µM, first compound 0.00316 µM
  viability, T/C: 92.8%
Second compound 0.003 µM, first compound 0.01 µM
  viability, T/C: 80.3%
Second compound 0.003 µM, first compound 0.0316 µM
  viability, T/C: 78.6%
Second compound 0.003 µM, first compound 0.1 µM
  viability, T/C: 76%
Second compound 0.003 µM, first compound 0.316 µM
  viability, T/C: 86.4%
Second compound 0.003 µM, first compound 1 µM
  viability, T/C: 60.5%
Second compound 0.00949 µM, first compound 0.00316 µM
  viability, T/C: 91.8%
Second compound 0.00949 µM, first compound 0.01 µM
  viability, T/C: 93.3%
Second compound 0.00949 µM, first compound 0.0316 µM
  viability, T/C: 73.7%
Second compound 0.00949 µM, first compound 0.1 µM
  viability, T/C: 94%
Second compound 0.00949 µM, first compound 0.316 µM
  viability, T/C: 83.2%
Second compound 0.00949 µM, first compound 1 µM
  viability, T/C: 62.9%
Second compound 0.03 µM, first compound 0.00316 µM
  viability, T/C: 70%
Second compound 0.03 µM, first compound 0.01 µM
  viability, T/C: 87.7%
Second compound 0.03 µM, first compound 0.0316 µM
  viability, T/C: 85.2%
Second compound 0.03 µM, first compound 0.1 µM
  viability, T/C: 90.6%
Second compound 0.03 µM, first compound 0.316 µM
  viability, T/C: 63.4%
Second compound 0.03 µM, first compound 1 µM
  viability, T/C: 57.9%
Second compound 0.0949 µM, first compound 0.00316 µM
  viability, T/C: 77.8%
Second compound 0.0949 µM, first compound 0.01 µM
  viability, T/C: 83%
Second compound 0.0949 µM, first compound 0.0316 µM
  viability, T/C: 81.2%
Second compound 0.0949 µM, first compound 0.1 µM
  viability, T/C: 61.9%
Second compound 0.0949 µM, first compound 0.316 µM
  viability, T/C: 83.3%
Second compound 0.0949 µM, first compound 1 µM
  viability, T/C: 64.3%
Second compound 0.3 µM, first compound 0.00316 µM
  viability, T/C: 81.6%
Second compound 0.3 µM, first compound 0.01 µM
  viability, T/C: 72.9%
Second compound 0.3 µM, first compound 0.0316 µM
  viability, T/C: 73.4%
Second compound 0.3 µM, first compound 0.1 µM
  viability, T/C: 84.2%
Second compound 0.3 µM, first compound 0.316 µM
  viability, T/C: 71.4%
Second compound 0.3 µM, first compound 1 µM
  viability, T/C: 50.2%
